For data set [1] the following is noted: cited from earlier work; for equivalents of L-ascorbic acid: antioxidant activity towards superoxide radical anion.
Data set [2] has as its target T1, PTP1B phosphatase (Homo sapiens, UniProt P18031).
T1 construct: purchased Cayman Chemical, Ann Arbor, MI, USA
T1 sequence (P18031 1-435): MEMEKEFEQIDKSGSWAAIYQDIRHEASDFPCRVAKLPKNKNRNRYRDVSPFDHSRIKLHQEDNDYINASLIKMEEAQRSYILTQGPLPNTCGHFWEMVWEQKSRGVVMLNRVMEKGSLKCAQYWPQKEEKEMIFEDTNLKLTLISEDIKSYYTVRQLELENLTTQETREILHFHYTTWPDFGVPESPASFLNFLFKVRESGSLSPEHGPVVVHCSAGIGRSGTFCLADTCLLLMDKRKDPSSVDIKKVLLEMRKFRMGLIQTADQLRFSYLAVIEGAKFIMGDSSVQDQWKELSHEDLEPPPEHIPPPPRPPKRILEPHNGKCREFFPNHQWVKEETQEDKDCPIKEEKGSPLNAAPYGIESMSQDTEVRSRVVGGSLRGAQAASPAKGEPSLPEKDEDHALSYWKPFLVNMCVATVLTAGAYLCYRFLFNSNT
Put plainly: Recombinant PTP1B assay (pNPP substrate). The format is biochemical. The settings on record: for inhibitory effect on PTP1B: 78.125 nM (lowest statistically significant concentration); for Ki: calculated as Ki = IC50/(S/Km + 1), S 1 mM, Km 0.7 mM, competitive type assumed from docking, read-out: Ki ± SD; for IC50: recombinant PTP1B 10 nM, 1 mM pNPP, 37 °C, HEPES pH 7.4; for inhibition of PTP1B: concentration range 39.063 to 625 nM. Here is the method: The experiment was carried out on 96-well plates. The final concentration of PTP1B phosphatase in the reaction samples was […] (10 nM). […] The enzyme activities of PTP1B phosphatase were evaluated at 37 °C using 1 mM chromogenic substrate para-nitrophenyl phosphate (pNPP) in 10 mM HEPES buffer pH 7.4. The increase in absorbance (due to the formation of para-nitrophenols) is linearly proportional to the concentration of enzyme activity (with excessive substrate, i.e., zero-order kinetics) and was measured at 405 nm using DigiRead Communication Software (version 1.2.0.2., Dan Kittrich, Asys Hitech GmbH, Eugendorf, Austria) on the Jupiter microplate reader (Biogenet, Józefów, Poland). Data were expressed as the percentage of untreated enzyme (control).

The test system of data set [3] is human keratinocyte HaCaT cell line. Put plainly: Cell viability assay (MTT). The format is cell-based. The settings on record: 24 h. On the procedure:
(§1) The MCF-7 and MDA-MB-231 breast cancer cell lines and the human keratinocyte HaCaT cell line were obtained from the American Type Culture Collection (ATCC, Manassas, VA, USA). Dulbecco’s modified eagle medium supplemented with 10% fetal bovine serum (FBS) and 1% penicillin/streptomycin was used to cultivate the cell lines. The cells were cultured at 37 °C in a 5% CO2 atmosphere.
(§2) According to the general protocol, a cell viability assay (MTT assay) was performed. […] The chemicals were dissolved in a growth medium containing 1% penicillin/streptomycin. After 24 h, 0.5 mg/mL of MTT solution (3-[4,5-dimethylthiazol-2-yl]-2,5-diphenyl-tetrazolium bromide) was added. 100 µL of DMSO was added to each well once the purple precipitate was clearly visible under the microscope. A microplate reader (Biogenet, Jozefow, Poland) and DigiRead Communication Software were used to measure the absorbance at 492 nm (Asys Hitech GmbH, Eugendorf, Austria). Data were expressed as the percentage of untreated cells (control).

For data set [4], the system named is MDA-MB-231 breast cancer cell line. Put plainly: Cell viability assay (MTT). The settings on record: 24 h. The format is cell-based. On the procedure: as §1, §2
For data set [5], the system named is MCF-7 breast cancer cell line. In words: Cell viability assay (MTT). The format is cell-based. The settings on record: 24 h. On the procedure:
as §1, §2

Molecules are shown by their SMILES.

For the molecule `O.O.O.O.O=C([O-])c1cccc(C(=O)[O-])n1.[O]=[V+2]` [Compound 1, [VO(dipic)(H2O)2]·2 H2O], the “equivalents of L-ascorbic acid” value in data set [1] is reported as 2.359. In data set [2], the “inhibitory effect on PTP1B” value was found to be 17%, the Ki is 256 ± 15.3 nM and the IC50 came out at 628 ± 39.1 nM. Besides, the “cytotoxic effect (in words)” value in data set [3] (50 µM) was “no cytotoxic effect”. The “effect on cell growth (in words)” value in data set [3] (low concentrations) was “improved cell growth at low concentrations”. The same molecule returned a cytotoxic effect in data set [4] (MDA-MB-231, 50 µM) of 25%.

As to `O.O=C([O-])c1cccc(C(=O)[O-])n1.[O]=[V+2].c1ccc(-c2ccccn2)nc1` [Compound 2, [VO(dipic)(bipy)]·H2O], in data set [1], the “equivalents of L-ascorbic acid” value was 0.936. Also, the “inhibitory effect on PTP1B” value in data set [2] is recorded as 19%. Also, in data set [2], the Ki is 173 ± 17.2 nM. In data set [2], the IC50 is 426 ± 37.1 nM. Further, the “cell viability (% of control)” value in data set [4] (MDA-MB-231, 25 µM) came out at 65%; in data set [4] (MDA-MB-231, 50 µM), 56%; in data set [4] (MDA-MB-231, 100 µM), 44%.

Consider `O.O.O=C1CNCC(=O)[O][V](=[O])[O]1.c1ccc(-c2ccccn2)nc1` [Compound 3, [VO(ida)(bipy)]·2 H2O], for which the “equivalents of L-ascorbic acid” value in data set [1] is 5.43. Moreover, in data set [2], the “inhibitory effect on PTP1B” value is listed as 25%. The Ki in data set [2] was 221 ± 19.1 nM. The IC50 in data set [2] came to 543 ± 48.4 nM. Moreover, the “cell viability (% of control)” value in data set [4] (MDA-MB-231, 25 µM) amounted to 76%; in data set [4] (MDA-MB-231, 50 µM), 55%; in data set [4] (MDA-MB-231, 100 µM), 46%.

Regarding `COc1ccnc(-c2cc(OC)ccn2)c1.O.O.O=C([O-])c1cccc(C(=O)[O-])n1.[O]=[V+2]` [Compound 4], the Ki in data set [2] was 74.2 ± 4.1 nM. Moreover, in data set [2], the “inhibition of PTP1B” value is 31–67%. In addition, in data set [2], the IC50 stood at 185 ± 9.8 nM. In addition, the “cell viability (% of control)” value worked out at 86% in data set [5] (MCF-7, 25 µM); 61% in data set [5] (MCF-7, 50 µM); 53% in data set [5] (MCF-7, 100 µM).

Regarding `O.O=C1[O][V-](=[O])(=[O])[O]C(=O)c2cccc1n2.c1ccc(-c2cccc[nH+]2)cc1` [Compound 5, [VOO(dipic)](2-phepyH)·H2O], the “calculated equivalent towards L-ascorbic acid” value in data set [1] (antioxidant activity towards superoxide anion radicals) was 0.68. Further, in data set [2], the Ki was 66.7 ± 3.3 nM, the “inhibition of PTP1B” value is given as 38–68% and the IC50 was determined as 167 ± 8 nM.

Consider `[Na+].[Na+].[Na+].[O]=[V]([O-])([O-])[O-]` [Sodium orthovanadate, reference compound], for which the “inhibition of enzymatic activity of PTP1B (in words)” value in data set [2] (complexes and orthovanadate 39.0625 nM to 5 µM, ligands 500 nM to 5 µM) is listed as “inhibited the enzymatic activity of PTP1B phosphatase in a concentration-dependent manner”. The “inhibition of PTP1B” value in data set [2] is recorded as 31–67%.

What is called Ki is the equilibrium dissociation constant of an inhibitor or competing ligand from its target. In general, IC50 refers to the concentration that inhibits the measured activity by half.

The values are drawn from PMC9267097, “Synthesis, In Vitro, and Computational Studies of PTP1B Phosphatase Inhibitors Based on Oxovanadium(IV) and Dioxovanadium(V) Complexes” (International Journal of Molecular Sciences, 2022).
